Earlier results, collected in patent US20220331279A1, “THERAPEUTIC METHODS AND COMPOSITIONS FOR TREATING CANCER USING 6,8-BIS-BENZYLTHIO-OCTANOIC ACID AND A GLUTAMINASE INHIBITOR” (Rafael Pharmaceuticals, lnc., priority 2019, published 2022).

Details: after IV dosing; Pardee, T. S. et al., Clin. Cancer Res. 2014, 20, 5255-64

half-life: 1 to 2 h
SMILES: O=C(O)CCCCC(CCSCc1ccccc1)SCc1ccccc1 (stereo not shown) [6,8-bis-benzylthio-octanoic acid]
